Data set [1] concerns hormone receptor-positive metastatic breast cancer. As to conditions: cited from earlier work.
Data set [2] concerns patients with HER2-negative metastatic breast cancer. Put plainly: Treatment-related adverse events. Format: in vivo, human. Particulars: 11/43; N=1 at 250mg, N=10 at 350mg.
Data set [3] relates to PI3Kα isoform (both wild-type and mutated p110α). Particulars: cited from earlier work.
A short description of data set [4]: Plasma pharmacokinetics, phase I, cycle 1. It counts as in vivo, human. As to conditions: 13 patients, with nab-paclitaxel.
Data set [5] deals with other class I isoforms β, δ, and γ. Particulars: cited from earlier work.
In data set [6] the test system is patients with HER2-negative metastatic breast cancer. Format: in vivo.
In data set [7] the test system is PIK3CA/AKT1/PTEN-altered metastatic TNBC. As to conditions: cited from earlier work.

Each structure is given as a SMILES string.

With `NC1(C(=O)N[C@@H](CCO)c2ccc(Cl)cc2)CCN(c2ncnc3[nH]ccc23)CC1` [capivasertib], the “PFS with addition to fulvestrant” value in data set [1] is “improvement in PFS”.
Turning to `Cc1nc(NC(=O)N2CCC[C@H]2C(N)=O)sc1-c1ccnc(C(C)(C)C(F)(F)F)c1` [alpelisib], the “Alpelisib dose reduction required, patients” value in data set [2] is reported as 26%. Besides, the “inhibition of PI3Kα isoform” value in data set [3] is “selectively inhibits PI3Kα isoform”. The “Tmax, Cmax, and AUC (0–8 hrs) of alpelisib” value in data set [4] was “consistent with previous published reports”. The “activity against the other class I isoforms β, δ, and γ” value in data set [5] is “significantly less active”. Besides, in data set [6] (in combination with nab-paclitaxel 100mg/m^2 D1,8,15), the MTD of alpelisib entry is “not reached”. Besides, the RP2D of alpelisib in data set [6] (orally daily, in combination with nab-paclitaxel 100mg/m^2 D1,8,15 every 28 days) worked out at 350 mg.
For `CC(C)NC[C@@H](C(=O)N1CCN(c2ncnc3c2[C@H](C)C[C@H]3O)CC1)c1ccc(Cl)cc1` [ipatasertib], in data set [7], the “PFS with addition to first-line paclitaxel” value was “failed to show improvement in PFS”.

The values above are taken from paper PMC8282704 (Clinical cancer research : an official journal of the …, 2021).
